What all share (assay type): cell-based
Assay [1] has as its target T1, human somatostatin receptor subtype 2 (Homo sapiens, UniProt P30874).
T1 construct: expressed in transfected cells
The assay can be described thus: Functional assay for SSTR2 agonists (HTRF cAMP). The following applies: CHO-K1 cells stably expressing human SST2; NKH477-stimulated cAMP; 20 min at 37 C; read-out: hSST2 cAMP Avg EC50. In outline: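 Agonist activity read as fall in intracellular cAMP: HTRF 665/620 nm ratio regressed to a cAMP standard curve, EC50 fitted. Stable human SSTR2 CHO-K1 cells exposed 20 min at 37 °C to compound, final concentrations typically 0-10,000 nM.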
For orientation: In TR-FRET formats the signal depends on donor and acceptor labels being close together.

A further assay concerns the target T2, SST2 (Homo sapiens, UniProt P30874).
T2 construct: host or cells: PathHunter CHO-K1 SST2 cells
In words: PathHunter CHO-K1 SST2 Internalization Assay. The settings on record: PathHunter CHO-K1 SST2 cells; 90 min at 37 C; luminescence; read-out: Internalization EC50. In outline: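 Four-parameter nonlinear fits of background-corrected luminescence (duplicate means) gave IC50s. NDCs were serially diluted 1:3 over 11 points from a 10 uM final top concentration and incubated 90 min at 37 C with human SST2 CHO-K1 cells plated 48 h earlier at 2500/well. Beta-Glo read-out developed 60 min at RT.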

Assay [2] concerns NCI-H524 human small cell lung cancer cells. The assay can be described thus: H524 assay: inhibition of cell proliferation (CellTiter Glo). The settings on record: 2 h treatment, washout, additional 70 h incubation. In outline: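 Proliferation was measured by CellTiter Glo 70 h after a washout that followed a 2 h pulse of NDC. Doses were an 11-point, two-fold dilution series from 1 uM. IC50 was fitted with a four-parameter model to luminescence-based % inhibition relative to control cells.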
In general terms: Cellular ATP, detected with luciferase, serves as a proxy for viable cell number.

SMILES strings stand for the structures.

By EC50 is commonly meant the concentration needed to bring the measured effect to its halfway point.

T2 sequence (P30874 whole entry): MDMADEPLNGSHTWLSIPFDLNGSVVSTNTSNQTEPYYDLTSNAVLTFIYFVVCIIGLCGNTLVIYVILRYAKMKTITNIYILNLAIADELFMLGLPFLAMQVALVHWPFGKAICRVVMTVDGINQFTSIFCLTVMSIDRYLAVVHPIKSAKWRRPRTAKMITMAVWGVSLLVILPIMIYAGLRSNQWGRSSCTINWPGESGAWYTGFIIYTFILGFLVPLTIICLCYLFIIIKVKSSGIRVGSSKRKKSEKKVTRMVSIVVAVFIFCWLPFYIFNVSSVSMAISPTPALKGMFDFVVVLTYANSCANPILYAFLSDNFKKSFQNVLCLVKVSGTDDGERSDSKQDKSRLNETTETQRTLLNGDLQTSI
T1 sequence (P30874 whole entry): as above

Turning to `CC[C@H](C)[C@@H]([C@@H](CC(=O)N1CCC[C@H]1[C@H](OC)[C@@H](C)C(=O)N[C@H](C)[C@@H](O)c1ccccc1)OC)N(C)C(=O)[C@@H](NC(=O)[C@H](C(C)C)N(C)C(=O)OCc1ccc(NC(=O)[C@H](CCCNC(N)=O)NC(=O)[C@@H](NC(=O)c2cc(NCCOCCC(=O)NCCNc3ncc(-c4cc(C)cc(F)c4)c(N4CCC(N)CC4)c3-c3nc4ccc(Cl)cc4[nH]3)cc(C(=O)NCC(=O)O)c2)C(C)C)cc1)C(C)C` [Compound 185], the EC50 in assay [1] was found to be 0.19 nM; at SST2 it was 2.6 nM; in assay [2] it was 1100 nM.
Turning to `CC[C@H](C)[C@@H]([C@@H](CC(=O)N1CCC[C@H]1[C@H](OC)[C@@H](C)C(=O)N[C@H](C)[C@@H](O)c1ccccc1)OC)N(C)C(=O)[C@@H](NC(=O)[C@H](C(C)C)N(C)C(=O)OCc1ccc(NC(=O)[C@H](CCCNC(N)=O)NC(=O)[C@@H](NC(=O)[C@H](CCC(N)=O)NC(=O)CCOCCOCCOCCOCCC(=O)NCCNc2ncc(-c3cc(C)cc(F)c3)c(N3CCC(N)CC3)c2-c2nc3ccc(Cl)cc3[nH]2)C(C)C)c(OCCN)c1)C(C)C` [Compound 26], the EC50 was 0.3 nM in assay [1], 12 nM on SST2 and 17 nM in assay [2].
Regarding `CC[C@H](C)[C@@H]([C@@H](CC(=O)N1CCC[C@H]1[C@H](OC)[C@@H](C)C(=O)N[C@H](C)[C@@H](O)c1ccccc1)OC)N(C)C(=O)[C@@H](NC(=O)[C@H](C(C)C)N(C)C(=O)OCc1ccc(NC(=O)[C@H](C)NC(=O)[C@@H](NC(=O)CCOCCC(=O)NCCNc2ncc(-c3cc(C)cc(F)c3)c(N3CCC(N)CC3)c2-c2nc3cc(F)cc(OC)c3[nH]2)C(C)C)c(O[C@@H]2O[C@H](C(=O)O)[C@@H](O)[C@H](O)[C@H]2O)c1)C(C)C` [Compound 140], the EC50 in assay [1] amounted to 0.15 nM; on SST2 it was 2.9 nM; in assay [2] it was 6.6 nM.
On to `CC[C@H](C)[C@@H]([C@@H](CC(=O)N1CCC[C@H]1[C@H](OC)[C@@H](C)C(=O)N[C@H](C)[C@@H](O)c1ccccc1)OC)N(C)C(=O)[C@@H](NC(=O)[C@H](C(C)C)N(C)C(=O)OCc1ccc(NC(=O)[C@H](CCCNC(N)=O)NC(=O)[C@@H](NC(=O)CCOCCC(=O)NCCNc2ncc(-c3cc(C)cc(F)c3)c(N3CCC(N)CC3)c2-c2nc3ccc(Cl)cc3[nH]2)C(C)C)c(O[C@@H]2O[C@H](C(=O)NCC(=O)NCCCCCCO[PH](=O)OC3CCC(c4ccccc4)(c4ccccc4)CC3)[C@@H](O)[C@H](O)[C@H]2O)c1)C(C)C` (stereo partly drawn) [Compound 234], for which the EC50 in assay [1] amounted to 0.55 nM; at SST2, 6.6 nM; in assay [2] it was 140 nM.
The matching figures for `CC[C@H](C)[C@@H]([C@@H](CC(=O)N1CCC[C@H]1[C@H](OC)[C@@H](C)C(=O)N[C@H](C)[C@@H](O)c1ccccc1)OC)N(C)C(=O)[C@@H](NC(=O)[C@H](C(C)C)N(C)C(=O)OCc1ccc(NC(=O)[C@H](CCCNC(N)=O)NC(=O)[C@@H](NC(=O)[C@@H](CS(=O)(=O)O)NC(=O)CCOCCC(=O)NCCNc2ncc(-c3cc(C)cc(F)c3)c(N3CCC(N)CC3)c2-c2nc3ccc(Cl)cc3[nH]2)C(C)C)cc1C(=O)NCCN)C(C)C` [Compound 28]: 0.074 nM, 11 nM and 120 nM.
On the same counts, the results for `CC[C@H](C)[C@@H]([C@@H](CC(=O)N1CCC[C@H]1[C@H](OC)[C@@H](C)C(=O)N[C@H](C)[C@@H](O)c1ccccc1)OC)N(C)C(=O)[C@@H](NC(=O)[C@H](C(C)C)N(C)C(=O)OCc1ccc(NC(=O)[C@H](CCCNC(N)=O)NC(=O)[C@@H](NC(=O)[C@H](CCC(=O)O)NC(=O)CCOCCC(=O)NCCNc2ncc(-c3cc(C)cc(F)c3)c(N3CCC(N)CC3)c2-c2nc3ccc(Cl)cc3[nH]2)C(C)C)cc1C(=O)NCCNC)C(C)C` [Compound 57] are 0.31 nM, 6.6 nM and 1000 nM.
On the same counts, the results for `CC[C@H](C)[C@@H]([C@@H](CC(=O)N1CCC[C@H]1[C@H](OC)[C@@H](C)C(=O)N[C@H](C)[C@@H](O)c1ccccc1)OC)N(C)C(=O)[C@@H](NC(=O)[C@H](C(C)C)N(C)C(=O)OCc1ccc(NC(=O)[C@H](CCCNC(N)=O)NC(=O)[C@@H](NC(=O)C[C@@H](N)C(=O)NCCOCCNC(=O)c2cc(NCCOCCC(=O)NCCNc3ncc(-c4cc(C)cc(F)c4)c(N4CCC(N)CC4)c3-c3nc4cc(F)cc(OC)c4[nH]3)cc(C(=O)NCC(=O)O)c2)C(C)C)cc1)C(C)C` [Compound 164] are 0.35 nM, 4.1 nM and 27 nM.
For `CC[C@H](C)[C@@H]([C@@H](CC(=O)N1CCC[C@H]1[C@H](OC)[C@@H](C)C(=O)N[C@H](C)[C@@H](O)c1ccccc1)OC)N(C)C(=O)[C@@H](NC(=O)[C@H](C(C)C)N(C)C(=O)OCc1ccc(NC(=O)[C@H](CCCNC(N)=O)NC(=O)[C@@H](NC(=O)c2cc(NCCOCCC(=O)NCCNc3ncc(-c4cc(C)cc(F)c4)c(N4CCC(N)CC4)c3-c3nc4ccc(Cl)cc4[nH]3)cc(C(=O)NCCCC(=O)O)c2)C(C)C)cc1)C(C)C` [Compound 146], the concentration giving a half-maximal response (EC50) turned out to be 0.29 nM in assay [1], 9.9 nM on SST2 and 62 nM in assay [2].
Take `CC[C@H](C)[C@@H]([C@@H](CC(=O)N1CCC[C@H]1[C@H](OC)[C@@H](C)C(=O)N[C@H](C)[C@@H](O)c1ccccc1)OC)N(C)C(=O)[C@@H](NC(=O)[C@H](C(C)C)N(C)C(=O)OCc1ccc(NC(=O)[C@H](CCCNC(N)=O)NC(=O)[C@@H](NC(=O)[C@@H](CS(=O)(=O)O)NC(=O)CCOCCC(=O)NCCNc2ncc(-c3cc(C)cc(F)c3)c(N3CCC(N)CC3)c2-c2nc3ccc(Cl)cc3[nH]2)C(C)C)cc1C(=O)NCCN)C(C)C` [Compound 29]: the EC50 in assay [1] worked out at 0.076 nM; on SST2, 8.5 nM; in assay [2] it was 2.6 nM.
`CC[C@H](C)[C@@H]([C@@H](CC(=O)N1CCC[C@H]1[C@H](OC)[C@@H](C)C(=O)N[C@H](C)[C@@H](O)c1ccccc1)OC)N(C)C(=O)[C@@H](NC(=O)[C@H](C(C)C)N(C)C(=O)OCc1ccc(NC(=O)[C@H](CCCNC(N)=O)NC(=O)[C@@H](NC(=O)c2cc(NCCCCCC(=O)NCCNc3ncc(-c4cc(C)cc(F)c4)c(N4CCC(N)CC4)c3-c3nc4ccc(Cl)cc4[nH]3)cc(C(=O)NCC(=O)O)c2)C(C)C)cc1)C(C)C` [Compound 154]: the EC50 in assay [1] amounted to 1.6 nM; at SST2, 7.7 nM; in assay [2], 39 nM.
For the compound `CC[C@H](C)[C@@H]([C@@H](CC(=O)N1CCC[C@H]1[C@H](OC)[C@@H](C)C(=O)N[C@H](C)[C@@H](O)c1ccccc1)OC)N(C)C(=O)[C@@H](NC(=O)[C@H](C(C)C)N(C)C(=O)OCc1ccc(NC(=O)[C@H](CCCNC(N)=O)NC(=O)[C@@H](NC(=O)[C@H](CCCO)NC(=O)CCOCCC(=O)NCCNc2ncc(-c3cc(C)cc(F)c3)c(N3CCC(N)CC3)c2-c2nc3cc(Cl)ccc3[nH]2)C(C)C)c(O[C@@H]2O[C@H](C(=O)NCC(=O)O)[C@@H](O)[C@H](O)[C@H]2O)c1)C(C)C` [Compound 219], the figures for the EC50 (in assay [1]; at SST2; in assay [2]) were 0.099 nM, 2.7 nM and 7.5 nM, respectively.
On the same counts, the results for `CC[C@H](C)[C@@H]([C@@H](CC(=O)N1CCC[C@H]1[C@H](OC)[C@@H](C)C(=O)N[C@H](C)[C@@H](O)c1ccccc1)OC)N(C)C(=O)[C@@H](NC(=O)[C@H](C(C)C)N(C)C(=O)OCc1ccc(NC(=O)[C@H](CCCNC(N)=O)NC(=O)[C@@H](NC(=O)CCOCCOCCC(=O)NCCNc2ncc(-c3cc(C)cc(F)c3)c(N3CCC(N)CC3)c2-c2nc3ccc(Cl)cc3[nH]2)C(C)C)cc1C(=O)NCCNC(=O)CCCCCCCCCCC(=O)O)C(C)C` [Compound 83] are 0.53 nM, 7 nM and 310 nM.
Consider `CC[C@H](C)[C@@H]([C@@H](CC(=O)N1CCC[C@H]1[C@H](OC)[C@@H](C)C(=O)N[C@H](C)[C@@H](O)c1ccccc1)OC)N(C)C(=O)[C@@H](NC(=O)[C@H](C(C)C)N(C)C(=O)OCc1ccc(NC(=O)[C@H](CCCNC(N)=O)NC(=O)[C@@H](NC(=O)c2cc(NC(=O)CCCC(=O)N(C)CC(=O)NCCNc3ncc(-c4cc(C)cc(F)c4)c(N4CCC(N)CC4)c3-c3nc4ccc(Cl)cc4[nH]3)cc(C(=O)NC[C@@H](N)C(=O)O)c2)C(C)C)cc1)C(C)C` [Compound 171], for which the EC50 in assay [1] amounted to 0.33 nM; at SST2 it was 8.3 nM; in assay [2], 14 nM.
Consider `CC[C@@H](C)[C@H]([C@H](CC(=O)N1CCCC1[C@@H](OC)[C@H](C)C(=O)N[C@@H](C)[C@H](O)c1ccccc1)OC)N(C)C(=O)[C@H](NC(=O)[C@@H](C(C)C)N(C)C(=O)OCc1ccc(NC(=O)[C@@H](C)NC(=O)[C@H](NC(=O)[C@@H](CCCO)NC(=O)CCOCCC(=O)NCCNc2ncc(-c3cc(C)cc(F)c3)c(N3CCC(N)CC3)c2-c2nc3ccc(Cl)cc3[nH]2)C(C)C)c(O[C@H]2O[C@@H](C(=O)O)[C@H](O)[C@@H](O)[C@@H]2O)c1)C(C)C` (stereo partly drawn) [Compound 239], for which the EC50 worked out at 0.16 nM in assay [1], 4.9 nM at SST2 and 12 nM in assay [2].
As for `CC[C@H](C)[C@@H]([C@@H](CC(=O)N1CCC[C@H]1[C@H](OC)[C@@H](C)C(=O)N[C@H](C)[C@@H](O)c1ccccc1)OC)N(C)C(=O)[C@@H](NC(=O)[C@H](C(C)C)N(C)C(=O)OCc1ccc(NC(=O)[C@H](CCCNC(N)=O)NC(=O)[C@@H](NC(=O)[C@@H](CS(=O)(=O)O)NC(=O)CCOCCC(=O)NCCNc2ncc(-c3cc(C)cc(F)c3)c(N3CCC(N)CC3)c2-c2nc3ccc(Cl)cc3[nH]2)C(C)C)cc1C(=O)N1CC(C(=O)O)C1)C(C)C` [Compound 77], the EC50 in assay [1] was 0.092 nM; on SST2 it was 4.2 nM; in assay [2], 130 nM.

(Values after patent publication US20260007758A1, “SO[…]-2 RECEPTOR (SST2R) NON-PEPTIDE DRUG CONJUGATES AND USES THEREOF” (Crinetics Pharmaceuticals, Inc., priority 2024, published 2026).)
